Patent US12667546B2, “Methods for manipulating cell state transitions in cancer” (AGENCY FOR SCIENCE, TECHNOLOGY AND RESEARCH, priority 2018, dated 2026)
Several values for one entry are separate records, joined by “and”; a condition that tells them apart may be missing. Equal entries are not always repeated. Structures can show the parent of a compound that is named as a salt. Where two headings read alike, the source gives them in different places.

Key:
[1] = tested on: SERPINE1prom-Luc reporter in NAMEC8 cells; assay: Dual-Glo luciferase assay of SERPINE1prom-Luc reporter (FF/Ren); format: cell-based, human; details: for activity at 10 µM: Homo sapiens, 72 h, read-out: Avr FF/Renilla from DMSO; for dose-dependent change of SERPINE1 promoter activity: dose response (metabolic hits 10 nM to 2 μM; epigenetic hits six concentrations)
Text: pGreenFire1-mCMV was cut using ClaI and SpeI and gel purified. Promoter sequences of genes Zeb1, Serpine1, CDH1, CD24, CD44, CD166 were amplified from human genomic DNA with pre-designed primers containing ClaI and SpeI restriction cut sites using AccuPrime Taq DNA Polymerase (Thermo Fisher Scientific). PCR products were then digested with restriction enzymes and gel-purified. Vector was ligated with PCR insert using Quick Ligase (Fermentas) and transformed into Stb12 competent cells. Colonies were picked and inoculated into TB media with ampicillin. Plasmids were then isolated using a plasmid miniprep kit (Qiagen) and sent for sequencing (1 stBASE Laboratories). After verifying the plasmid sequence, transfection into HEK293 cells was carried out to generate lentivirus. Transfection was carried out using FuGENE 6 (Promega). Viral supernatant was harvested at 24 h and 48 h. NAMEC8 cells were then infected twice with virus using polybrene ([…]) and checked for good transduction efficiency using Dual-Glo Luciferase System (Promega).
Stock plates of compound libraries were kindly prepared by GIS CHiP facility at 1 mM concentration in DMSO. NAMEC8-SERPINE1prom-Luc cells were seeded into 384 well plates at a density of 700 cells/well in a total volume of 50 μl, using an automated dispensing system (BioTek). 0.5 μl of compounds were then added to the wells the following day using a robotic pin transfer with a Bravo workstation (Agilent Technologies). Cells were then grown for 3 days and promoter-luciferase activity was measured using the Dual-Glo Luciferase System (Promega).
Assay was carried out according to manufacturer's instructions. To measure luciferase activity in 384 well plates, media was first removed from the plate. Firefly luciferase activity was determined by adding 30 μl Dual-Glo Luciferase substrate (Promega) to the wells and incubated for 10 min before measuring luminescence using a TECAN M1000 Pro plate reader. 15 μl Dual-Glo Stop & Glo substrate was then added to the wells, incubated for 10 min and measuring luminescence on the plate reader to determine Renilla luciferase activity. Promoter luciferase activity is then calculated by taking Firefly luciferase over Renilla luciferase.

[2] = tested on: NAMEC8-SERPINE1prom-Luc cells; assay: Renilla-luciferase (constitutive CMV promoter) readout for cell numbers; format: cell-based, human; details: for viability at 10 µM: Homo sapiens, 72 h, read-out: % Avr Renilla from DMSO
[3] = primary screen, NAMEC8-SERPINE1prom-Luc cells grown 3 days with compound, relative to DMSO
[4] = primary screen, Renilla as readout for cell numbers, relative to DMSO
[5] = primary screen, […], relative to DMSO

CS(=O)(=O)N1CCc2c(-c3cnc(N)nc3)nc(N3CCOCC3)nc21 [CH5132799]
activity at 10 µM [1, 3]: 71% | viability at 10 µM [2, 4]: 50.6%

CNC(=O)c1ccc(C)c(-n2c(C)cc(OCc3ccc(F)cc3F)c(Br)c2=O)c1 [PH-797804]
activity at 10 µM [1, 3]: 67% | viability at 10 µM [2, 4]: 53%

CC(=O)Nc1nc(C)c(-c2ccc(Cl)c(S(=O)(=O)NCCO)c2)s1 [PIK-93]
Avr FF/Renilla from DMSO [1, 5]: 0.72 | % Avr Renilla from DMSO [2, 4]: 75.51%

CC1(C(=O)O)C2CCC(O2)C1(C)C(=O)O (centres unmarked) [Cantharidic Acid]
activity at 10 µM [1, 5]: 40% | viability at 10 µM [2, 4]: 74.6%

CC1=C(/C=C/C(C)=C/C=C/C(C)=C\C(=O)O)C(C)(C)CCC1 [Isotretinoin]
activity at 10 µM [1, 3]: 37% | viability at 10 µM [2, 4]: 84.1%

CCN(CC)CCCCNc1ncc2cc(-c3c(Cl)cccc3Cl)c(NC(=O)NC(C)(C)C)nc2n1 [PD-161570]
Avr FF/Renilla from DMSO [1, 3]: 0.39 | % Avr Renilla from DMSO [2, 4]: 74.13%

CC(=O)O[C@@]12C[C@@H](C)[C@@]3(O)[C@@H](C=C(CO)C[C@]4(O)C(=O)C(C)=C[C@@H]34)[C@@H]1C2(C)C [Prostratin]
activity at 10 µM [1, 3]: 55% | viability at 10 µM [2, 4]: 146%

CCCCCC(O)/C=C/C1C(=O)CC(O)C1C/C=C\CCCC(=O)OCC(O)CO (centres unmarked) [Prostaglandin D2-1-glyceryl ester]
Avr FF/Renilla from DMSO [1, 3]: 0.59 | % Avr Renilla from DMSO [2, 4]: 58.41%

CN([C@@H](Cc1ccc(OS(=O)(=O)c2cccc3cnccc23)cc1)C(=O)N1CCN(c2ccccc2)CC1)S(=O)(=O)c1cccc2cnccc12 [KN-62]
Avr FF/Renilla from DMSO [1, 3]: 0.43 | % Avr Renilla from DMSO [2, 4]: 67.80%

Cc1cccc(-c2nn(C(=S)Nc3ccccc3)cc2-c2ccnc3ccccc23)n1 [A83-01]
downregulation of SERPINE1prom-Luc ([1]; positive control treatment): at least 50%

O=C(Nc1ccc2[nH]ncc2c1)C1CCC1 [Rhodblock 6]
Avr FF/Renilla from DMSO [1, 3]: 0.87 | % Avr Renilla from DMSO [2, 4]: 89.97%

CCCCC[C@H](O)/C=C/[C@H]1[C@H](O)CC(=O)[C@@H]1CC(=O)CCCCC(=O)O [6-keto Prostaglandin E1]
Avr FF/Renilla from DMSO [1, 3]: 0.55 | % Avr Renilla from DMSO [2, 4]: 79.67%

CCCCC/C=C\C/C=C\C/C=C\C/C=C\CCCC(=O)NCc1ccoc1 [UCM707]
Avr FF/Renilla from DMSO [1, 5]: 0.57 | % Avr Renilla from DMSO [2, 4]: 88.05%

CCCCC(C)(C)[C@H](O)/C=C/[C@H]1C(=O)C[C@H](O)[C@@H]1C/C=C\CCCC(=O)O [16,16-dimethyl Prostaglandin D2]
Avr FF/Renilla from DMSO [1, 3]: 0.48 | % Avr Renilla from DMSO [2, 4]: 52.62%

CN1CCc2cccc3c2[C@H]1Cc1ccc(O)c(O)c1-3 [Apomorphine hydrochloride hemihydrate]
activity at 10 µM [1, 3]: 84% | viability at 10 µM [2, 4]: 85.1%

CCSC(=N)Nc1ccc(C(F)(F)F)cc1 [S-ethyl N-[4-(trifluoromethyl)phenyl] Isothiourea (hydrochloride)]
activity at 10 µM [1, 3]: 59% | viability at 10 µM [2, 4]: 76.8%

CCCCc1oc2ccccc2c1C(=O)c1cc(I)c(OCCN(CC)CC)c(I)c1 [Amiodarone hydrochloride]
activity at 10 µM [1, 3]: 59% | viability at 10 µM [2, 4]: 86.9%

NC(=O)c1ccc(-c2nc(-c3ccccn3)c(-c3ccc4c(c3)OCO4)[nH]2)cc1 [SB 431542]
Avr FF/Renilla from DMSO [1, 3]: 0.50 | % Avr Renilla from DMSO [2, 4]: 51.90%

CCCn1c(=O)c2[nH]c(-c3ccc(S(=O)(=O)O)cc3)nc2n(CCC)c1=O [1,3-Dipropyl-8-p-sulfophenylxanthine]
activity at 10 µM [1, 3]: 61% | viability at 10 µM [2, 4]: 103%

O=[N+]([O-])c1ccc(CNc2nc(NCc3cccc(C(F)(F)F)c3)nc3nc[nH]c23)cc1 [TNP]
Avr FF/Renilla from DMSO [1]: 0.88 | % Avr Renilla from DMSO [2]: 80.47%

CAY10587
Avr FF/Renilla from DMSO [1, 3]: 0.56 | % Avr Renilla from DMSO [2, 4]: 72.88%

O=c1[nH]c(=O)n([C@H]2C[C@H](O)[C@@H](CO)O2)cc1Br [5-Bromo-2′-deoxyuridine]
activity at 10 µM [1, 3]: 67% | viability at 10 µM [2, 4]: 65.7%

COc1ccc(Br)cc1S(=O)(=O)NC(=O)/C=C/c1ccccc1Cc1ccc2ccccc2c1 [L-798106]
Avr FF/Renilla from DMSO [1, 3]: 0.13 | % Avr Renilla from DMSO [2, 4]: 68.99%

O=C(O)CCC/C=C\C[C@H]1C(=O)C=C[C@@H]1/C=C/[C@@H](O)COc1ccccc1 [16-phenoxy tetranor Prostaglandin A2]
Avr FF/Renilla from DMSO [1, 3]: 0.59 | % Avr Renilla from DMSO [2, 4]: 82.64%

O=C(Nc1cccc(C(F)(F)F)c1)Nc1cc(S(=O)(=O)NC2CC2)ccc1-c1ccsc1 [AGI-6780]
dose-dependent change of SERPINE1 promoter activity [1]: dose dependent decrease in SERPINE1 promoter activity

NC(=O)c1ccc(-c2nc(-c3ccc4c(c3)OCCO4)c(-c3ccccn3)[nH]2)cc1 [D 4476]
Avr FF/Renilla from DMSO [1, 3]: 0.57 | % Avr Renilla from DMSO [2, 4]: 53.26%

CCO.N#CC(=C(/N)Sc1ccccc1N)/C(C#N)=C(\N)Sc1ccccc1N [U0126-EtOH]
Avr FF/Renilla from DMSO [1, 3]: 0.62 | % Avr Renilla from DMSO [2, 4]: 76.21%

C=CCc1ccccc1OCC(O)CNC(C)C (centres unmarked) [Alprenolol hydrochloride]
activity at 10 µM [1, 3]: 80% | viability at 10 µM [2, 4]: 90.2%

COc1ccc(S(=O)(=O)N(CCO)c2ccccc2CN(C)C/C=C/c2ccc(Cl)cc2)cc1 [KN-93]
Avr FF/Renilla from DMSO [1, 3]: 0.59 | % Avr Renilla from DMSO [2, 4]: 54.45%

S=C(NCc1ccc2c(c1)OCO2)N1CCN(c2ncnc3c2oc2ccccc23)CC1 [Amuvatinib (MP-470)]
Avr FF/Renilla from DMSO [1, 3]: 0.37 and 0.23 | % Avr Renilla from DMSO [2, 4]: 140.20% and 213.43%

CCCCCCCCCCCCC/C=C/[C@@H](O)[C@H](CO)NC(=O)CCCCCCC [C-8 Ceramide]
Avr FF/Renilla from DMSO [1, 3]: 0.54 | % Avr Renilla from DMSO [2, 4]: 70.74%

N[C@@H](CC(=O)O)C(=O)O [L-Aspartic acid]
activity at 10 µM [1, 3]: 71% | viability at 10 µM [2, 4]: 99.3%

COc1cccc(Nc2c(C(N)=O)cnc3c(C)cc(S(=O)(=O)c4cccc(C(=O)N(C)C)c4)cc23)c1 [GSK256066]
dose-dependent change of SERPINE1 promoter activity [1]: dose dependent decrease in SERPINE1 promoter activity

Cc1cc(Nc2ncnc3ccc(NC4=NC(C)(C)CO4)cc23)ccc1Oc1ccn2ncnc2c1 [Arry-380]
activity at 10 µM [1, 3]: 73% | viability at 10 µM [2, 4]: 67.3%

CC[C@H](CO)Nc1nc(NCc2ccccc2)c2ncn(C(C)C)c2n1 [Roscovitine (Seliciclib, CYC202), Roscovitine]
activity at 10 µM [1]: 63% | viability at 10 µM [2, 4]: 53.7%

CCCCCCCCc1ccc(-c2ccc(C(=O)O)cc2)cc1 [AC-55649]
Avr FF/Renilla from DMSO [1, 3]: 0.59 | % Avr Renilla from DMSO [2, 4]: 106.55%

CCCCC/C=C\C=C1\C(=O)C[C@H](O)[C@@H]1C/C=C\CCCC(=O)O [15-deoxy-_12,14-Prostaglandin D2]
Avr FF/Renilla from DMSO [1, 3]: 0.57 | % Avr Renilla from DMSO [2, 4]: 68.09%

N#C/C(=C\c1ccc(O)c(O)c1)C(=O)NCc1ccccc1 [AG-490]
Avr FF/Renilla from DMSO [1, 3]: 0.47 | % Avr Renilla from DMSO [2, 4]: 64.03%

CCCCC[C@H](O)/C=C/[C@H]1C(=O)C[C@H](O)[C@@H]1C/C=C\CCCC(=O)NCCO [Prostaglandin D2 Ethanolamide]
Avr FF/Renilla from DMSO [1, 3]: 0.55 | % Avr Renilla from DMSO [2, 4]: 65.62%

Cc1cccc(-c2[nH]c(C(C)(C)C)nc2-c2ccc3nccnc3c2)n1 [SB-525334]
Avr FF/Renilla from DMSO [1, 3]: 0.37 | % Avr Renilla from DMSO [2, 4]: 51.73%

CN(Cc1cnc2nc(N)nc(N)c2n1)c1ccc(C(=O)N[C@@H](CCC(=O)O)C(=O)O)cc1 [Abitrexate (Methotrexate), Methotrexate]
activity at 10 µM [1, 3]: 56% | viability at 10 µM [2, 4]: 55.6%

N#CC(=C(/N)Sc1ccccc1N)/C(C#N)=C(\N)Sc1ccccc1N [U0126]
activity at 10 µM [1]: 45% | viability at 10 µM [2]: 102%

Cn1cc(C2=C(c3ccc(Cl)cc3Cl)C(=O)NC2=O)c2ccccc21 [SB 216763]
Avr FF/Renilla from DMSO [1, 3]: 0.56 | % Avr Renilla from DMSO [2, 4]: 107.55%

C[N+]1(C)[C@@H]2CC[C@H]1C[C@@H](OC(=O)C(CO)c1ccccc1)C2 (some centres unmarked) [Atropine methyl nitrate]
activity at 10 µM [1, 3]: 68% | viability at 10 µM [2, 4]: 103%

CC1(C)CNc2cc(NC(=O)c3cccnc3NCc3ccncc3)ccc21 [Motesanib Diphosphate (AMG-706), Motesanib Diphosphate]
activity at 10 µM [1, 3]: 70% | viability at 10 µM [2, 4]: 50.9%

CCOC(=O)c1ccc(C#Cc2ccc3c(c2)C(C)(C)CCS3)nc1 [Tazarotene]
activity at 10 µM [1, 3]: 59% | viability at 10 µM [2, 4]: 67%
